Values quoted from earlier work in patent publication US20220361462A1, “ANIMAL MODEL FOR NEURODEGENERATIVE DISORDERS” (NEURO-BIO LTD, priority 2019, published 2022).
No end group written: not given here.

Tested on: cell lines
Details: previously shown by the inventors

NBP-14: candidate modulator of the α7-nAChR, the cyclized form of T14, cyclic SEQ ID No:4 (AEFHRWSSYMVHWK; not fully specified; also: cyclised, mode not given here; listed as Homo sapiens)
effect on AD-like phenotype promoted by AChE-derived peptide on cell lines: blocked
